# Where two headings read alike, the source gives them in different places.
# Experiments:
# U87MG cells [1] = assay: Radioactivity concentration of labeled compounds in tumor, U87MG subcutaneous transplantation; type: in vivo, mice (Balb/c AJcl-nu/nu); details: caudal vein, 111In 740 kBq, 64Cu and 90Y 500 kBq
# Description: Test Example 3 Evaluation based on radioactivity concentration of ^111In-labeled compound, ^64Cu-labeled compound, and ^90Y-labeled compound in tumor
# After 2 to 3 weeks, at a point in time when the tumor volume became 200 to 500 mm^3, 3 mice were sorted into one group at each point in time. The ^111In-labeled compound (740 k Bq) was administered into the caudal vein, the animals were sacrificed after a certain period of time, and the tumor was extracted. The weight of the tumor was measured, the radioactivity was measured using a gamma counter, and the radioactivity concentration in tumor (% ID/g) was calculated. For the ^64Cu-labeled compound (500 k Bq) and the ^90Y-labeled compound (500 k Bq), the radioactivity concentration in tumor (% ID/g) was calculated by the same method.
# [2] = Radiochemical purity after standing at room temperature (reversed-phase TLC); type: physicochemical
# Description: A indium [^111In] chloride solution (80 MBq, 100 μL) was added to a mixture of the compound A (8.5 μg) and a 0.2 mol/L sodium acetate buffer solution (pH 4.0) (1.5 mL). The solution was heated to 100° C. for 15 minutes and then left to stand for 5 minutes at room temperature, thereby obtaining [^111In]-(compound A). […] The radiochemical purity measured immediately after the compound was prepared and measured after 24 hours at room temperature was equal to or higher than 95%.
# A yttrium [^90Y] chloride solution (700 MBq, 240 μL) was added to a mixture of the compound (79 μg), gentisic acid (1.8 mg), a 0.6 mol/L sodium acetate buffer solution (pH 4.0, 120 μL), and 0.4 mol/L aqueous sodium hydroxide solution (24 μL). The solution was heated to 100° C. for 20 minutes and then left to stand for 5 minutes at room temperature, thereby obtaining [90^Y]-(compound A). […] The radiochemical purity measured immediately after the compound was prepared and measured after 24 hours at room temperature was equal to or higher than 95%.
# A copper [^64Cu] chloride solution (pH 5, 35 MBq, 55 μL) was added to a mixture of the compound A (5.8 μg) and 0.2 mol/L sodium acetate buffer solution (pH 4.0, 219 μL). The solution was heated to 100° C. for 15 minutes and left to stand for 5 minute at room temperature, thereby obtaining [^64Cu]-(compound A). […] The radiochemical purity measured immediately after the compound was prepared and measured after 22 hours at room temperature was equal to or higher than 90%.
# A 0.2 mol/L sodium acetate buffer solution of Copper [^64Cu] chloride (pH 4.0) (40 MBq, 155 μL) was added to a mixture of the compound B (4.2 μg), gentisic acid (1 mg), and a 0.2 mol/L sodium acetate buffer solution (pH 4.0) (5.0 μL). The solution was heated to 100° C. for 15 minutes and left to stand for 5 minutes at room temperature, thereby obtaining [^64Cu]-(compound B). […] The radiochemical purity measured immediately after the compound was prepared and measured after 24 hours at room temperature was equal to or higher than 90%.
# A gallium [^67Ga] chloride solution (200 MBq, 63 μL) was added to a mixed solution of the compound A (21 μg), gentisic acid (1.0 mg), a 0.2 mol/L sodium acetate buffer solution (pH 4.0, 730.7 μL), and 4.5 mol/L aqueous sodium hydroxide solution (6.3 μL). The solution was heated to 100° C. for 15 minutes and then left to stand for 5 minutes at room temperature, thereby obtaining [^67Ga]-(compound A).
# A lutetium [^177Lu] chloride solution (666 MBq, 333 μL) dissolved in a 0.2 mol/L sodium acetate buffer solution (pH 4.0) was added to a mixed solution of the compound A (70.0 μg), gentisic acid (1.8 mg), and a 0.2 mol/L sodium acetate buffer solution (pH 4.0, 83.3 μL). The solution was heated to 100° C. for 15 minutes and then left to stand for 5 minutes at room temperature, thereby obtaining [^177Lu]-(compound A).
# A gallium [^67Ga] chloride solution (40 MBq, 11.7 μL) was added to a mixed solution of the compound B (4.1 μg), gentisic acid (1.0 mg), a 0.2 mol/L sodium acetate buffer solution (pH 4.5, 147.13 μL), and 4.5 mol/L aqueous sodium hydroxide solution (1.17 μL). The solution was heated to 100° C. for 15 minutes and then left to stand for 5 minutes at room temperature, thereby obtaining [^67Ga]-(compound B).
# U87MG cells [3] = details: 1 time; for Number of animals showing regression: 8 animals; for Inhibition rate: 16 days after administration; for Tumor volume 16 days after administration / Tumor volume At the beginning of administration: Mean ± SD
# Description: Test Example 7 Therapeutic Test on U87MG Subcutaneous Transplantation Model Using [^90Y]-(Compound A)
# 1×10^7 U87MG cells were transplanted into the subcutaneous space of the right flank of Balb/c Slc-nu/nu (males, 6-week-old, Japan SLC. Inc). After 2 weeks, the mice with a tumor having a volume of 100 to 500 mm^3 were grouped. A phosphate buffered saline (PBS) or [^90Y]-(compound A) was administered into the caudal vein, and the tumor volume was measured. At a point in time when the tumor volume of the mice of the PBS group exceeded 2,000 mm^3 which is a humane endpoint, the antitumor activity was evaluated.
# [4] = test system: T98G cell (human glioblastoma); assay: Therapeutic test on T98G subcutaneous transplantation model; type: in vivo, mice (Balb/c Slc-nu/nu); details: 1 time; for Number of animals showing regression: 6 animals; for Inhibition rate: 13 days after administration; for Tumor volume 13 days after administration / Tumor volume At the beginning of administration: Mean ± SD
# Description: Test Example 8 Therapeutic Test on T98G Subcutaneous Transplantation Model Using [^90Y]-(Compound A)
# After 77 days, at a point in time when the tumor volume reached 300 to 1,200 mm^3, the mice were grouped. […] The evaluation values were calculated by the same method as in Test Example 7, and the antitumor activity was evaluated.
# [5] = Absorbed dose in a human being simulated with OLINDA/EXM 1.0 from monkey organ distribution
# Description: (§1) Blood was collected from a crab-eating macaque over time, and by using [^111In]-(compound A), from the radioactivity concentration in the blood, kinetic parameters of the compound in blood were calculated by OLINDA/EXM 1.0. Furthermore, by using [^111In]-(compound A), from the organ distribution obtained by imaging, the absorbed dose of each organ obtained in a case where the compound is administered to a human being was calculated using OLINDA/EXM 1.0. [^111In]-(compound A) (98 MBq/9.3 μg) was administered to a crab-eating macaque (Hamri Co., Ltd., males, 3-year-old, 3.4 kg) under anesthesia. After the administration, blood was collected over time, and imaging was performed using a gamma camera. The blood was collected 10, 30, and 60 minutes after the administration and 2, 4, 5, 6, 24, 48, 72, and 144 hours after the administration. Regarding the imaging, after 1, 2, 4, 6, 24, 48, 72, and 144 hours, planar imaging was performed using a gamma camera (Symbia, Siemens Healthcare GmbH). Regarding the anesthesia, the animal was anesthetized with ketamine at 20 mg/kg before the administration of [^111In]-(compound A) and kept anesthetized until the end of imaging, which was continued for 6 hours after the administration, by inhalation anesthesia (isofluran 2 to 3%, 5 to 8 L/min). After 24 hours, ketamine (20 mg/kg) and xylazine (2 mg/kg) were administered to perform blood collection and imaging.
# (§2) Furthermore, by using exposure dose analysis software OLINDA/EXM 1.0, the absorbed dose in a human being was simulated using each of the labeled compounds, and the results are shown below.
# [6] = Monkey blood kinetics and planar imaging; type: in vivo, crab-eating macaque
# Description: Test Example 9 Imaging of Monkey by Using [^111In]-(Compound A)
# as §1
# The kinetic parameters in blood are also shown below.
# as §2
structure (smiles),measurement,setting,value
Cc1cc(OCCCC(=O)NCCNC(=O)[C@H](CS(=O)(=O)O)NC(=O)CC[C@H](C(=O)O)N2CCN(CC(=O)[O-])CCN(CC(=O)[O-])CC2)cc(C)c1S(=O)(=O)N[C@@H](CNC(=O)CCCCc1ccc2c(n1)NCCC2)C(=O)O.[64Cu+2] [[^64Cu]-(compound B)],Radioactivity concentration in tumor After 4 hours,U87MG cells [1],11.19 % ID/g
same,Radioactivity concentration in tumor After 24 hours,U87MG cells [1],8.53 % ID/g
same,radiochemical purity immediately after preparation and after 24 hours at room temperature,[2],≥ 90%
Cc1cc(OCCCC(=O)NCCNC(=O)[C@H](CS(=O)(=O)O)NC(=O)CN2CCN(CC(=O)[O-])CCN(CC(=O)[O-])CCN(CC(=O)[O-])CC2)cc(C)c1S(=O)(=O)N[C@@H](CNC(=O)CCCCc1ccc2c(n1)NCCC2)C(=O)O.[67Ga+3] [[^67Ga]-(compound A)],radiochemical purity immediately after preparation and after 3.5 hours at room temperature,[2]; 3.5 hours,≥ 95%
Cc1cc(OCCCC(=O)NCCNC(=O)[C@H](CS(=O)(=O)O)NC(=O)CC[C@H](C(=O)[O-])N2CCN(CC(=O)[O-])CCN(CC(=O)[O-])CC2)cc(C)c1S(=O)(=O)N[C@@H](CNC(=O)CCCCc1ccc2c(n1)NCCC2)C(=O)O.[67Ga+3] [[^67Ga]-(compound B)],radiochemical purity immediately after preparation and after 5.5 hours at room temperature,[2]; 5.5 hours,≥ 95%
Cc1cc(OCCCC(=O)NCCNC(=O)C(CS(=O)(=O)O)NC(=O)CN2CCN(CC(=O)[O-])CCN(CC(=O)[O-])CCN(CC(=O)[O-])CC2)cc(C)c1S(=O)(=O)NC(CNC(=O)CCCCc1ccc2c(n1)NCCC2)C(=O)O.[90Y+3] (stereo not shown) [[^90Y]-(compound A)],Radioactivity concentration in tumor After 4 hours,U87MG cells [1],12.52 % ID/g
same,Radioactivity concentration in tumor After 24 hours,U87MG cells [1],15.29 % ID/g
same,Number of animals showing regression,U87MG cells [3]; 14.8 MBq,2
same,Inhibition rate,U87MG cells [3]; 14.8 MBq,95%
same,Tumor volume 16 days after administration,U87MG cells [3]; 14.8 MBq,429 ± 188 mm^3
same,Tumor volume At the beginning of administration,U87MG cells [3]; 14.8 MBq,351 ± 72 mm^3
same,Number of animals showing regression,U87MG cells [3]; 22.2 MBq,2
same,Inhibition rate,U87MG cells [3]; 22.2 MBq,97%
same,Tumor volume 16 days after administration,U87MG cells [3]; 22.2 MBq,386 ± 142 mm^3
same,Tumor volume At the beginning of administration,U87MG cells [3]; 22.2 MBq,343 ± 88 mm^3
same,Number of animals showing regression,[4]; 22.2 MBq,1
same,Inhibition rate,[4]; 22.2 MBq,82%
same,Tumor volume 13 days after administration,[4]; 22.2 MBq,882 ± 399 mm^3
same,Tumor volume At the beginning of administration,[4]; 22.2 MBq,755 ± 293 mm^3
same,Number of animals showing regression,[4]; 29.6 MBq,3
same,Inhibition rate,[4]; 29.6 MBq,97%
same,Tumor volume 13 days after administration,[4]; 29.6 MBq,755 ± 313 mm^3
same,Tumor volume At the beginning of administration,[4]; 29.6 MBq,736 ± 264 mm^3
same,Absorbed dose Brain,[5],1.96 mGy/MBq
same,Absorbed dose Kidney,[5],14.7 mGy/MBq
same,Absorbed dose Liver,[5],1.12 mGy/MBq
same,Absorbed dose Lung,[5],1.35 mGy/MBq
same,Absorbed dose Red marrow,[5],0.06 mGy/MBq
same,Absorbed dose Small intestine,[5],0.87 mGy/MBq
same,Absorbed dose Whole body,[5],0.27 mGy/MBq
same,radiochemical purity immediately after preparation and after 24 hours at room temperature,[2],≥ 95%
Cc1cc(OCCCC(=O)NCCNC(=O)C(CS(=O)(=O)O)NC(=O)CN2CCN(CC(=O)[O-])CCN(CC(=O)[O-])CCN(CC(=O)[O-])CC2)cc(C)c1S(=O)(=O)NC(CNC(=O)CCCCc1ccc2c(n1)NCCC2)C(=O)O.[111In+3] (stereo not shown) [[^111In]-(compound A)],Radioactivity concentration in tumor After 4 hours,U87MG cells [1],11.10 % ID/g
same,Radioactivity concentration in tumor After 24 hours,U87MG cells [1],9.62 % ID/g
same,AUC,"[6]; blood, 98 MBq/9.3 μg",0.22 % ID · h/mL
same,CL,"[6]; blood, 98 MBq/9.3 μg",2.17 mL/min/kg
same,Cmax,"[6]; blood, 98 MBq/9.3 μg",0.018 % ID/mL
same,T½α,"[6]; blood, 98 MBq/9.3 μg",0.46 h
same,T½β,"[6]; blood, 98 MBq/9.3 μg",19.3 h
same,Vss,"[6]; blood, 98 MBq/9.3 μg",3.52 L/kg
same,integration into the bladder and the gall bladder (planar imaging),[6]; up to 6 hours after the administration,increased over time
same,Absorbed dose Brain,[5],0.25 mGy/MBq
same,Absorbed dose Kidney,[5],1.19 mGy/MBq
same,Absorbed dose Liver,[5],0.19 mGy/MBq
same,Absorbed dose Lung,[5],0.12 mGy/MBq
same,Absorbed dose Red marrow,[5],0.05 mGy/MBq
same,Absorbed dose Small intestine,[5],0.05 mGy/MBq
same,Absorbed dose Whole body,[5],0.05 mGy/MBq
same,radiochemical purity immediately after preparation and after 24 hours at room temperature,[2],≥ 95%
Cc1cc(OCCCC(=O)NCCNC(=O)[C@H](CS(=O)(=O)O)NC(=O)CN2CCN(CC(=O)[O-])CCN(CC(=O)[O-])CCN(CC(=O)[O-])CC2)cc(C)c1S(=O)(=O)N[C@@H](CNC(=O)CCCCc1ccc2c(n1)NCCC2)C(=O)O.[177Lu+3] [[^177Lu]-(compound A)],radiochemical purity immediately after preparation and after 3 hours at room temperature,[2]; 3 hours,≥ 95%
